From patent publication US9227971B2, “Pyrazolo[1,5-a]pyrimidine compounds as mTOR inhibitors” (Merck Sharp & Dohme Corp., priority 2010, dated 2016)

Legend:
[1] = test system: phosphorylated AKT Ser473 (pAKT S473), mTORC2 activity, PC3 cells; assay: mTOR target engagement assay, immunofluorescent cell-based, pAKT S473 readout (mTORC2 activity); conditions: Homo sapiens, PC-3, PC3 cells
Procedure, shortened: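 After blocking, cells were stained overnight at 4 °C with anti-pAKT S473 antibody, then a fluorescent secondary; inhibition was read as reduced fluorescence intensity.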

[2] = test system: phosphorylated 4E-BP1 Thr37/46 (p4E-BP1 Thr37/46), mTORC1 activity, PC3 cells; assay: mTOR target engagement assay, immunofluorescent cell-based, p4E-BP1 Thr37/46 readout (mTORC1 activity); conditions: Homo sapiens, PC-3, PC3 cells; read-out: p4E-BP1 Thr37/46 IC50
Procedure, shortened: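 Read-out is fluorescence intensity of immunostained p4E-BP1 Thr37/46 in fixed PC3 cells, fitted to a logistic curve for IC50 with DMSO-only wells as top. Cells had been exposed to serial compound dilutions for ninety minutes at 37° C in 5% FBS medium with 0.25% DMSO.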

Structure (SMILES) | IC50 [1] | IC50 [2]
CS(=O)(=O)c1c([C@@H]2C[C@H]3CC[C@@H](C2)N3C(=N)N)nc2c(-c3ccc(-c4ccccc4)nc3)cnn2c1N [Compound 8.73, (1R,3s,5S)-3-(7-amino-6-(methylsulfonyl)-3-(6-phenylpyridin-3-yl)pyrazolo[1,5-a]pyrimidin-5-yl)-8-azabicyclo[3.2.1]octane-8-carboximidamide] | 1000 to 10000 nM | 1000 to 10000 nM
CS(=O)(=O)c1c([C@@H]2C[C@H]3CC[C@@H](C2)N3c2noc(=O)[nH]2)nc2c(-c3ccc(-c4ccccc4)nc3)cnn2c1N [Compound 8.74, 3-((1R,3s,5S)-3-(7-amino-6-(methylsulfonyl)-3-(6-phenylpyridin-3-yl)pyrazolo[1,5-a]pyrimidin-5-yl)-8-azabicyclo[3.2.1]octan-8-yl)-1,2,4-oxadiazol-5(4H)-one] | 1000 to 10000 nM | > 10000 nM
CNC(=O)Nc1ccc(-c2cnn3c(N)c(C(C)=O)c([C@@H]4C[C@H]5CC[C@@H](C4)N5C(=O)c4ncn[nH]4)nc23)cn1 [Compound 8.75, 1-(5-(5-((1R,3s,5S)-8-(1H-1,2,4-triazole-5-carbonyl)-8-azabicyclo[3.2.1]octan-3-yl)-6-acetyl-7-aminopyrazolo[1,5-a]pyrimidin-3-yl)pyridin-2-yl)-3-methylurea] | 1 to 100 nM | 100 to 1000 nM
CC(=O)Nc1ccc(-c2cnn3c(N)c(C(C)=O)c([C@@H]4C[C@H]5CC[C@@H](C4)N5C(=O)c4ncn[nH]4)nc23)cn1 [Compound 8.76, N-(5-(5-((1R,3s,5S)-8-(1H-1,2,4-triazole-5-carbonyl)-8-azabicyclo[3.2.1]octan-3-yl)-6-acetyl-7-aminopyrazolo[1,5-a]pyrimidin-3-yl)pyridin-2-yl)acetamide] | 1 to 100 nM | 1 to 100 nM
CCOC(=O)Nc1ccc(-c2cnn3c(N)c(C(C)=O)c([C@@H]4C[C@H]5CC[C@@H](C4)N5C(=O)c4ncn[nH]4)nc23)cn1 [Compound 8.78, ethyl 5-(5-((1R,3s,5S)-8-(1H-1,2,4-triazole-5-carbonyl)-8-azabicyclo[3.2.1]octan-3-yl)-6-acetyl-7-aminopyrazolo[1,5-a]pyrimidin-3-yl)pyridin-2-ylcarbamate] | 1 to 100 nM | 1 to 100 nM
CNC(=O)Nc1ccc(-c2cnn3c(N)cc([C@@H]4C[C@H]5CC[C@@H](C4)N5C(=O)c4nnc[nH]4)nc23)cc1 [Compound 8.80, 1-(4-(5-((1R,3s,5S)-8-(4H-1,2,4-triazole-3-carbonyl)-8-azabicyclo[3.2.1]octan-3-yl)-7-aminopyrazolo[1,5-a]pyrimidin-3-yl)phenyl)-3-methylurea] | > 10000 nM | > 10000 nM
CNC(=O)Nc1ccc(-c2cnn3c(N)cc([C@@H]4C[C@H]5CC[C@@H](C4)N5C(=O)CO)nc23)cc1 [Compound 8.82, 1-(4-(7-amino-5-((1R,3s,5S)-8-(2-hydroxyacetyl)-8-azabicyclo[3.2.1]octan-3-yl)pyrazolo[1,5-a]pyrimidin-3-yl)phenyl)-3-methylurea] | > 10000 nM | > 10000 nM
CNC(=O)Nc1ccc(-c2cnn3c(N)c(C(C)=O)c([C@@H]4C[C@H]5CC[C@@H](C4)N5C(=O)c4nnc[nH]4)nc23)cc1 [Compound 8.85, 1-(4-(5-((1R,3s,5S)-8-(4H-1,2,4-triazole-3-carbonyl)-8-azabicyclo[3.2.1]octan-3-yl)-6-acetyl-7-aminopyrazolo[1,5-a]pyrimidin-3-yl)phenyl)-3-methylurea] | 1 to 100 nM | 100 to 1000 nM
N#C/N=C(\N)N1[C@@H]2CC[C@H]1C[C@H](c1cc(N)n3ncc(-c4ccc(-c5ccccc5)nc4)c3n1)C2 [Compound 8.86] | 1000 to 10000 nM | 1000 to 10000 nM
CS(=O)(=O)c1c([C@@H]2C[C@H]3CC[C@@H](C2)N3/C(N)=N/C#N)nc2c(-c3ccc(-c4ccccc4)nc3)cnn2c1N [Compound 8.87, (1R,3s,5S,E)-3-(7-amino-6-(methylsulfonyl)-3-(6-phenylpyridin-3-yl)pyrazolo[1,5-a]pyrimidin-5-yl)-N′-cyano-8-azabicyclo[3.2.1]octane-8-carboximidamide] | 1 to 100 nM | 100 to 1000 nM
